Two compounds from paper PMC4723341, “Ribonuclease H/DNA Polymerase HIV-1 Reverse Transcriptase Dual Inhibitor: Mechanistic Studies on the Allosteric Mode of Action of Isatin-Based Compound RMNC6” (PLoS ONE, 2016) can be followed below.

In test [1] the target is HIV-1 RT-associated RDDP activity, HIV-1 group O RT (Human immunodeficiency virus type 1 group O, UniProt Q79666). The experiment in a line: RDDP activity assay, HIV-1 group O RT. Type of test: biochemical. Particulars: read-out: IC50 RDDP. An excerpt: Recombinant HIV-1 group O RT was expressed and purified as previously described. It was obtained as a heterodimer composed of subunits of 66 and 51 kDa, with a polyhistidine tag at the C-terminus of p66. For this purpose, the RT p66 subunit encoded within a p66RTB expression vector was co-expressed with the HIV-1 protease in E. coli XL-1 Blue, and the obtained heterodimers were then purified by ionic exchange followed by chromatography on Ni2+-nitriloacetic acid agarose. The enzyme was quantified by active site titration before biochemical studies.
RNA-dependent DNA polymerase (RDDP) activity was measured as described in 25 μL volume containing 60 mM Tris-HCl buffer pH 8.1, 8 mM MgCl2, 60 mM KCl, 13 mM DTT, 2.5 μM poly(A)-oligo(dT), 100 μM dTTP, increasing concentrations of inhibitors, whose dilution were made in water, and different amounts of enzymes according to a linear range of dose-response curve: 6 ng wt RT; 30 ng K103N RT; 12 ng V106ART; 19 ng V108A RT; 1.51.5 ng Y181C RT; 45 ng Y188A RT; 15 ng Y188L RT; 30 ng E224A RT; 15 ng P225A RT; 18 ng P226A RT; 23 ng F227A RT; 15 ng L228A RT; 30 ng W229A RT; 30 ng M230A RT; 15 ng G231A RT; 15 ng N474A RT; 15 ng Y501A RT; 15 ng A502F RT; 19 ng A508V RT; 38 ng HIV-1 group O RT. After enzyme addition, the reaction mixture was incubated for 30 min at 37°C and the stopped by addition of EDTA. […]

In another test the target is T1, p66/p51 HIV-1 RT (Human immunodeficiency virus type 1 group M subtype B, UniProt P04585).
T1 construct: The 1:1 ration between the p66/p51 subunits was also verified; made in house; host or cells: E. coli M15
The experiment in a line: Thermal stability by differential scanning fluorimetry. Format: binding. Particulars: increasing concentrations of inhibitor. How it is done: Thermal stability assays were performed according to Nettleship et al.. […] The mixture was heated from 30 to 90°C in increments of 0.2°C. Fluorescence intensity was measured using excitation and emission wavelengths of 483 and 568 nm, respectively. Changes in protein thermal stability (ΔTm) upon inhibitor binding were analyzed by using the LightCycler 480 software. All assays were performed in triplicate.

By IC50 is commonly meant the concentration that gives 50% inhibition. As to `O=C1Nc2ccc(Cl)cc2[C@@](C#CC2CC2)(C(F)(F)F)O1` [EFV, Efavirenz, reference compound], the IC50 in test [1] was 212 ± 46 nM.

In the case of `Cc1sc2nc(-c3ccc(O)c(O)c3)[nH]c(=O)c2c1C` [VU, 2-(3,4-dihydroxyphenyl)-5,6-dimethylthieno[2,3-d]pyrimidin-4(3H)-one], at p66/p51 HIV-1 RT, the “Tm decrease of HIV-1 RT” value is 0.5−5.5 °C.
